Data as given in patent publication US5807845A, “Therapeutic drug for acne vulgaris” (Senju Pharmaceutical Co., Ltd., priority 1996, dated 1998).
Like-named read-outs stand apart in the source and are kept apart here.

Tests used:
[1] = Toxicity, LD50 in rat; settings: in vivo, intravenous
[2] = test system: Propionibacterium acnes (P. acnes); assay: Minimal growth inhibitory concentration (MIC) against Propionibacterium acnes; type: cell-based, Propionibacterium acnes (clinically isolated strain); settings: for MIC: Cutibacterium acnes; for Growth of P. acnes: key: +: growth; -: growth inhibition
Protocol: The minimal growth inhibitory concentration (MIC) of the present compound against P. acnes, which is a factor in the onset of acne vulgaris and a member of the normal flora of the skin, was determined.
(1) EPC-K (dissolved in distilled water)
Doubling dilutions from 10 mg/ml to 1.953125×10^-2 mg/ml in final concentration
(2) dl-α-tocopherol and L-ascorbic acid (dissolved in a mixed solution which consists of HC-60 (trademark, manufactured by NOF corporation) and propyleneglycol)
Dubling dilutions from 5 mg/ml to 7.8125×10^-2 mg/ml in final concentration
(3) As control, the mixed solution mentioned above was tested.
This test was performed by the method published by Committee for the Study of Methods for MIC Determination in Anaerobic Bacteria.
A frozen clinically isolated strain of P. acnes was subcultured on GAM agar medium for 3 generations and suspended in saline at about 10^8 cells/ml. This cell suspension and a 100-fold dilution thereof were used as inocula.
To molten GAM agar medium was added 1/9 volume of the test solution of a varying concentration and, after thorough mixing, sensitivity assay plates ranging from 10 mg/ml to 1.953125×10^-2 mg/ml in final concentration were prepared (plate pH 6.64-7.10). Using a loopful of the inoculum, each plate was streaked and incubated anaerobically at 37° C. for at least 48 hours. The incubated plate was then observed grossly and the lowest concentration causing a definite inhibition of growth was regarded as the MIC.
The inoculum was serially diluted 10-fold down to […] and GAM medium was inoculated with each dilution. After culture, the number of colonies were similarly countered for confirmation of the cell count.

[3] = test system: auricular sebaceous glands; assay: Inhibitory effect on the increase in hamster auricular sebaceous gland area (testosterone propionate-induced); type: in vivo, Syrian hamster; settings: 0.2%, 20 μl to right auricle twice daily for 2 weeks
Protocol: It is known that, in acne vulgaris, the sebaceous gland function of the skin is enhanced by elevation of the androgen level. Therefore, the auricular sebaceous glands were expanded by subcutaneous administration of an androgen to hamsters and the inhibitory effect of the present compound on this enlargement was tested.
Female Syrian hamsters purchased from SLC Japan were used at the age of 7 weeks.
(2) 0.2% L-ascorbyl DL-α-tocopheryl phosphate potassium (abbreviation: EPC-K)
In 1 ml of sesame oil was dissolved 80 μg of testosterone propionate and the solution was administered subcutaneously to hamsters every other day for 2 weeks to enlarge auricular sebaceous glands. The test material was applied in a volume of 20 μl to the right auricle twice daily for 2 weeks from the beginning of the test. The normal group was subjected to neither treatment. After 2 weeks, the hamsters were sacrificed. The right auricle was bored with a 9 mm-diameter punch and the sebaceous gland area was measured by the whole mount technique. The data were statistically analyzed by Dunnett's test. The level of significance was p<0.05.

[4] = 0.15625 mg/ml, 10^6 CFU/ml (Table 3)
[5] = 0.15625 mg/ml, 10^8 CFU/ml (Table 3)
[6] = 0.3125 mg/ml, 10^6 CFU/ml (Table 3)
[7] = 0.3125 mg/ml, 10^8 CFU/ml (Table 3)
[8] = 0.625 mg/ml, 10^6 CFU/ml (Table 3)
[9] = 0.625 mg/ml, 10^8 CFU/ml (Table 3)
[10] = 1.25 mg/ml, 10^6 CFU/ml (Table 3)
[11] = 1.25 mg/ml, 10^8 CFU/ml (Table 3)
[12] = 2.5 mg/ml, 10^6 CFU/ml (Table 3)
[13] = 2.5 mg/ml, 10^8 CFU/ml (Table 3)
[14] = 5.0 mg/ml, 10^6 CFU/ml (Table 3)
[15] = 5.0 mg/ml, 10^8 CFU/ml (Table 3)
[16] = 7.8125 × 10^-2 mg/ml, 10^6 CFU/ml (Table 3)
[17] = 7.8125 × 10^-2 mg/ml, 10^8 CFU/ml (Table 3)
[18] = vitamins in HC-60/propyleneglycol mixed solution, cell counts 10^8 and 10^6 CFU/ml (Table 3), read-out: MIC

Cc1c(C)c2c(c(C)c1OP(=O)(O)OC1=C(O)[C@@H]([C@@H](O)CO)OC1=O)CCC(C)(CCCC(C)CCCC(C)CCCC(C)C)O2 (mixture of isomers) [EPC-K, L-ascorbyl DL-α-tocopheryl phosphate potassium]
+: Growth of P. acnes ([2]; 0.15625 mg/ml, 10^6 CFU/ml (Table 2)) | Growth of P. acnes ([2]; 0.15625 mg/ml, 10^8 CFU/ml (Table 2)) | Growth of P. acnes ([2]; 0.3125 mg/ml, 10^8 CFU/ml (Table 2)) | Growth of P. acnes ([2]; 1.953125 × 10^-2 mg/ml, 10^6 CFU/ml (Table 2)) | Growth of P. acnes ([2]; 1.953125 × 10^-2 mg/ml, 10^8 CFU/ml (Table 2)) | Growth of P. acnes ([2]; 3.90625 × 10^-2 mg/ml, 10^6 CFU/ml (Table 2)) | Growth of P. acnes ([2]; 3.90625 × 10^-2 mg/ml, 10^8 CFU/ml (Table 2)) | Growth of P. acnes ([2]; 7.8125 × 10^-2 mg/ml, 10^6 CFU/ml (Table 2)) | Growth of P. acnes ([2]; 7.8125 × 10^-2 mg/ml, 10^8 CFU/ml (Table 2))
625 µg/mL: MIC ([2]; cell count 10^8 /ml, EPC-K dissolved in distilled water)
312 µg/mL: MIC ([2]; cell count 10^6 /ml, EPC-K dissolved in distilled water)
-: Growth of P. acnes ([2]; 0.3125 mg/ml, 10^6 CFU/ml (Table 2)) | Growth of P. acnes ([2]; 0.625 mg/ml, 10^6 CFU/ml (Table 2)) | Growth of P. acnes ([2]; 0.625 mg/ml, 10^8 CFU/ml (Table 2)) | Growth of P. acnes ([2]; 1.25 mg/ml, 10^6 CFU/ml (Table 2)) | Growth of P. acnes ([2]; 1.25 mg/ml, 10^8 CFU/ml (Table 2)) | Growth of P. acnes ([2]; 2.5 mg/ml, 10^6 CFU/ml (Table 2)) | Growth of P. acnes ([2]; 2.5 mg/ml, 10^8 CFU/ml (Table 2)) | Growth of P. acnes ([2]; 5.0 mg/ml, 10^6 CFU/ml (Table 2)) | Growth of P. acnes ([2]; 5.0 mg/ml, 10^8 CFU/ml (Table 2)) | Growth of P. acnes ([2]; 10.0 mg/ml, 10^6 CFU/ml (Table 2)) | Growth of P. acnes ([2]; 10.0 mg/ml, 10^8 CFU/ml (Table 2))
72.5%: % Inhibition of the increase in auricular sebaceous gland area ([3]; vs. methanol control)
3327 ± 225 μm^2: Area (auricular sebaceous gland area) ([3]; mean ± standard deviation (n = 7-8), p < 0.01 vs. methanol control)
≥ 100 mg/kg: LD50 [1]

Cc1c(C)c2c(c(C)c1O)CCC(C)(CCCC(C)CCCC(C)CCCC(C)C)O2 (racemic) [dl-α-Tocopherol, dl-α-tocopherol]
+: Growth of P. acnes [2, 4] | Growth of P. acnes [2, 5] | Growth of P. acnes [2, 6] | Growth of P. acnes [2, 7] | Growth of P. acnes [2, 8] | Growth of P. acnes [2, 9] | Growth of P. acnes [2, 10] | Growth of P. acnes [2, 11] | Growth of P. acnes [2, 12] | Growth of P. acnes [2, 13] | Growth of P. acnes [2, 14] | Growth of P. acnes [2, 15] | Growth of P. acnes [2, 16] | Growth of P. acnes [2, 17]
≥ 5000 µg/mL: MIC [2, 18]

O=C1O[C@H]([C@@H](O)CO)C(O)=C1O [L-Ascorbic acid, L-ascorbic acid]
+: Growth of P. acnes [2, 4] | Growth of P. acnes [2, 5] | Growth of P. acnes [2, 6] | Growth of P. acnes [2, 7] | Growth of P. acnes [2, 8] | Growth of P. acnes [2, 9] | Growth of P. acnes [2, 10] | Growth of P. acnes [2, 11] | Growth of P. acnes [2, 12] | Growth of P. acnes [2, 13] | Growth of P. acnes [2, 14] | Growth of P. acnes [2, 15] | Growth of P. acnes [2, 16] | Growth of P. acnes [2, 17]
≥ 5000 µg/mL: MIC [2, 18]
